Experimental data as given in PubChem BioAssay (NCI).
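These data come from cells grown in 96-well plates and exposed to compound for 48 hours at five concentrations. The concentration for 50% growth inhibition is given as GI50. At the TGI there is no net growth.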

Experiments:
Test in all cases: NCI-60 cell line screen, 48 h
[1] = tested on: HS 578T breast
[2] = tested on: RPMI-8226 leukemia
[3] = tested on: MOLT-4 leukemia
[4] = tested on: A498 renal
[5] = tested on: SNB-19 CNS
[6] = tested on: NCI-H23 lung
[7] = tested on: HT29 colon
[8] = tested on: EKVX NSCLC
[9] = tested on: HCT-15 colon
[10] = tested on: UACC-257 melanoma
[11] = tested on: SF-295 CNS
[12] = tested on: OVCAR-3 ovarian
[13] = tested on: SK-MEL-28 melanoma
[14] = tested on: MCF7 breast
[15] = tested on: M14 melanoma
[16] = tested on: MDA-MB-231 breast
[17] = tested on: BT-549 breast
[18] = tested on: SK-MEL-5 melanoma
[19] = tested on: HCC-2998 colon
[20] = tested on: UACC-62 melanoma
[21] = tested on: HOP-62 NSCLC
[22] = tested on: SF-539 CNS
[23] = tested on: MDA-MB-468 breast
[24] = tested on: HL-60(TB) leukemia
[25] = tested on: OVCAR-5 ovarian
[26] = tested on: NCI-H522 lung
[27] = tested on: SR leukemia
[28] = tested on: NCI-H226 lung
[29] = tested on: COLO 205 colon
[30] = tested on: SNB-75 CNS

Work on CC1(C)CC[C@]2(C(=O)O)CC[C@]3(C)C(=CCC4[C@@]5(C)C[C@@H](O)[C@@H]6OC(c7ccccc7Br)OC[C@@]6(C)C5CC[C@]43C)C2C1 (some centres undefined) yielded a GI50 [1] of 2.82 µM, a TGI [1] of 14.9 µM and a GI50 [2] of 2.66 µM. For the same compound, the TGI [2] was 71.8 µM, the GI50 [3] was 2.67 µM and the TGI [3] was 23.4 µM. For the same compound, the GI50 [4] was 3.28 µM, the TGI [4] was 12.6 µM and the GI50 [5] was 3.82 µM. For the same compound, the TGI [5] was > 100 µM, the GI50 [6] was 3.72 µM and the TGI [6] was 43.7 µM. For the same compound, the GI50 [7] was 3.42 µM, the TGI [7] was 16.7 µM and the GI50 [8] was 2.68 µM. It also gave a TGI [8] of 36.5 µM, a GI50 [9] of 2.21 µM and a TGI [9] of 12.9 µM. The GI50 [10] was 4.12 µM, the TGI [10] was 30.9 µM and the GI50 [11] was 2.79 µM. It also gave a TGI [11] of 18.8 µM, a GI50 [12] of 2.99 µM and a TGI [12] of 12.7 µM. The GI50 [13] was 4.69 µM, the TGI [13] was 37.2 µM and the GI50 [14] was 3.29 µM. For the same compound, the TGI [14] was > 100 µM, the GI50 [15] was 3.88 µM and the TGI [15] was 17.7 µM. The GI50 [16] was 4.01 µM, the TGI [16] was 21.9 µM and the GI50 [17] was 3.11 µM. The TGI [17] was 13.1 µM, the GI50 [18] was 3.6 µM and the TGI [18] was 13.9 µM. For the same compound, the GI50 [19] was 3.63 µM, the TGI [19] was 20.8 µM and the GI50 [20] was 4.8 µM. The TGI [20] was 24.8 µM, the GI50 [21] was 3.9 µM and the TGI [21] was 22.4 µM. The GI50 [22] was 3.59 µM, the TGI [22] was 12.8 µM and the GI50 [23] was 2.83 µM. The TGI [23] was 20.7 µM, the GI50 [24] was 2.57 µM and the TGI [24] was 9.75 µM. The GI50 [25] was 4.08 µM, the TGI [25] was 25 µM and the GI50 [26] was 3.45 µM. For the same compound, the TGI [26] was 78.4 µM, the GI50 [27] was 4.15 µM and the TGI [27] was > 100 µM. The GI50 [28] was 3.52 µM, the TGI [28] was 34.9 µM and the GI50 [29] was 1.99 µM. It also gave a TGI [29] of 4.89 µM and a GI50 [30] of 2.44 µM.
